molecular target: T1, hNPY1R (Homo sapiens, UniProt P25929); test: NPY1R binding assay: SK-N-MC membranes, [125I]-Peptide YY (human) competition; settings: data obtained after 60 minutes at 37° C.; SK-N-MC membranes; [125I]-Peptide YY 0.05 nM; read-out: hNPY1R binding Ki* †
T1 construct: SK-N-MC cells endogenously expressing the NPY1R receptor; endogenous in cells; host or cells: SK-N-MC cells (crude membrane fractions)
T1 sequence (P25929 1-384): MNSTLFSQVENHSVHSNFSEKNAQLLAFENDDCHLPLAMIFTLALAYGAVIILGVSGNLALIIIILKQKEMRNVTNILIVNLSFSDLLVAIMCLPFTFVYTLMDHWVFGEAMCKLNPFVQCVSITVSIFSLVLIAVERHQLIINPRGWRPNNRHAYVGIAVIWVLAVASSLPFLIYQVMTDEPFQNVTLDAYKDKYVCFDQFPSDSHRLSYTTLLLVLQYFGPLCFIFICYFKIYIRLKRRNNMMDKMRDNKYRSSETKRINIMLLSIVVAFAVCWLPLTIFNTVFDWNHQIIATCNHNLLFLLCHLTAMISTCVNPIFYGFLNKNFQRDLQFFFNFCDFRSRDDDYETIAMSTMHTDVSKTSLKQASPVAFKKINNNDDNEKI
Method: Crude membrane fractions are prepared from SK-N-MC cells endogenously expressing the NPY1R receptor. The cells are grown to 85-100% confluence on standard tissue culture dishes in Eagle's Minimum Essential Medium supplemented with 10% dialyzed FBS. To prepare membranes, cells are scraped and collected in 1× Dulbecco's phosphate buffered saline and then pelleted at 1000 RPM's. The cell pellet is reconstituted in membrane preparation buffer (20 mM HEPES, 6 mM MgCl2 and 1 mM EGTA, protease inhibitor tablets, pH 7.4) and placed in a cell disruption vessel at 1000 PSI for 30 minutes on ice. The pressurized contents are then released and spun down at 1000 RPMs and the supernatant is collected and further centrifuged at 15,000 RPMs to pellet the membranes. The membrane pellet is resuspended in membrane preparation buffer, snap frozen and stored at −80° C. for later use.
[…] Assay contents are then filtered through unifilter GF/C microplates and washed with 9×400 μl of cold wash buffer (25 mM HEPES, 5 mM MgCl2, 1 mM CaCl2), 500 mM NaCl, 0.1% Tween-20, pH 7.4). Assay plates are read using a Top Count NXT and Ki values for compounds are determined using a GraphPad Prism 6 non-linear regression analysis.

Row | Structure (SMILES) | Ki
1 | CCC(=O)NCCNC(=O)/N=C(/N)NCCC[C@@H](NC(=O)C(c1ccccc1)c1cccc(OCCOCCOCCOCCOCCNC(=O)CN2CCN(CC(=O)O)CCN(CC(=O)O)CCN(CC(=O)O)CC2)c1)C(=O)NCc1ccc(CNC(N)=O)cc1 (single isomer, unassigned) [Compound 114A] | 10 to 100 nM
2 | CCC(=O)NCCNC(=O)/N=C(/N)NCCC[C@@H](NC(=O)C(c1ccccc1)c1ccc(NCCCNc2c(NCCNC(=O)CN3CCN(CC(=O)O)CCN(CC(=O)O)CCN(CC(=O)O)CC3)c(=O)c2=O)cc1)C(=O)NCc1ccc(O)cc1 (single isomer, unassigned) [Compound 124B] | < 10 nM
3 | CCC(=O)NCCNC(=O)/N=C(/N)NCCC[C@@H](NC(=O)C(c1ccccc1)c1cccc(OCCCCNC(=O)[C@H](CS(=O)(=O)O)NC(=O)CN2CCN(CC(=O)O)CCN(CC(=O)O)CCN(CC(=O)O)CC2)c1)C(=O)NCc1ccc(O)cc1 (single isomer, unassigned) [Compound 107A] | 10 to 100 nM
4 | CCC(=O)NCCNC(=O)/N=C(/N)NCCC[C@@H](NC(=O)C(c1ccccc1)c1cccc(OCCCCNC(=O)[C@H](N)CCCCNC(=O)CN2CCN(CC(=O)O)CCN(CC(=O)O)CCN(CC(=O)O)CC2)c1)C(=O)NCc1ccc(O)cc1 (single isomer, unassigned) [Compound 109A] | < 10 nM
5 | CCC(=O)NCCNC(=O)/N=C(/N)NCCC[C@@H](NC(=O)C(c1ccccc1)c1cccc(OCCCCNC(=O)[C@H](N)CCCCNC(=O)CN2CCN(CC(=O)O)CCN(CC(=O)O)CCN(CC(=O)O)CC2)c1)C(=O)NCc1ccc(O)cc1 (single isomer, unassigned) [Compound 109B] | < 10 nM

same assay, conditions: data obtained after 120 minutes at rt; SK-N-MC membranes; [125I]-Peptide YY; read-out: hNPY.R binding Ki* ††

Row | Ki | Structure (SMILES)
6 | < 10 nM | CCC(=O)NCCNC(=O)/N=C(/N)NCCC[C@@H](NC(=O)C(c1ccccc1)c1ccc(NCCCNc2c(NCCNC(=O)CN3CCN(CC(=O)O)CCN(CC(=O)O)CCN(CC(=O)O)CC3)c(=O)c2=O)cc1)C(=O)NCc1ccc(O)cc1 (single isomer, unassigned) [Compound 124B]
7 | < 10 nM | CCC(=O)NCCNC(=O)/N=C(/N)NCCC[C@@H](NC(=O)C(c1ccccc1)c1ccc(NCCCNC(=O)CCCCCNC(=O)CN2CCN(CC(=O)O)CCN(CC(=O)O)CCN(CC(=O)O)CC2)cc1)C(=O)NCc1ccc(O)cc1 (single isomer, unassigned) [Compound 154]
8 | < 10 nM | CCC(=O)NCCNC(=O)/N=C(/N)NCCC[C@@H](NC(=O)C(c1ccccc1)c1cccc(NCCCNC(=O)CCOCCNC(=O)CN2CCN(CC(=O)O)CCN(CC(=O)O)CCN(CC(=O)O)CC2)c1)C(=O)NCc1ccc(O)cc1 (single isomer, unassigned) [Compound 121B]
9 | < 10 nM | CCC(=O)NCCNC(=O)/N=C(/N)NCCC[C@@H](NC(=O)C(c1ccccc1)c1ccc(NCCCNC(=O)[C@@H](CCCNC(=O)CN2CCN(CC(=O)O)CCN(CC(=O)O)CCN(CC(=O)O)CC2)NC(=O)CCCc2ccc(I)cc2)cc1)C(=O)NCc1ccc(O)cc1 (single isomer, unassigned) [Compound 153]
10 | < 10 nM | CCC(=O)NCCNC(=O)/N=C(/N)NCCC[C@@H](NC(=O)C(c1ccccc1)c1cccc(NCCCNc2c(NCCNC(=O)CN3CCN(CC(=O)O)CCN(CC(=O)O)CCN(CC(=O)O)CC3)c(=O)c2=O)c1)C(=O)NCc1ccc(O)cc1 (single isomer, unassigned) [Compound 120A]
11 | < 10 nM | CCC(=O)NCCNC(=O)/N=C(/N)NCCC[C@@H](NC(=O)C(c1ccccc1)c1cccc(OCCCCNC(=O)[C@@H](CCCNC(=N)N)NC(=O)CCNC(=O)CN2CCN(CC(=O)O)CCN(CC(=O)O)CCN(CC(=O)O)CC2)c1)C(=O)NCc1ccc(O)cc1 (single isomer, unassigned) [Compound 141B]
12 | < 10 nM | CCC(=O)NCCNC(=O)/N=C(/N)NCCC[C@@H](NC(=O)C(c1ccccc1)c1ccc(NCCCNC(=O)[C@H]2CC[C@H](CNC(=O)CN3CCN(CC(=O)O)CCN(CC(=O)O)CCN(CC(=O)O)CC3)CC2)cc1)C(=O)NCc1ccc(O)cc1 (stereo partly drawn) [Compound 158, 2,2′,2″-(10-(2-((((1R,4r)-4-((3-((4-((4R,Z)-9-amino-4-((4-hydroxybenzyl)carbamoyl)-2,11,16-trioxo-1-phenyl-3,8,10,12,15-pentaazaoctadec-9-en-1-yl)phenyl)amino)propyl)carbamoyl)cyclohexyl)methyl)amino)-2-oxoethyl)-1,4,7,10-tetraazacyclododecane-1,4,7-triyl)triacetic acid]
13 | < 10 nM | CCNC(=O)/N=C(/N)NCCC[C@@H](NC(=O)C(c1ccccc1)c1cccc(OCCCCNC(=O)[C@@H](Cc2ccc(-c3ccccc3)cc2)NC(=O)[C@@H](CN)NC(=O)CN2CCN(CC(=O)O)CCN(CC(=O)O)CCN(CC(=O)O)CC2)c1)C(=O)NCc1ccc(O)cc1 (single isomer, unassigned) [Compound 148B]
14 | < 10 nM | CCNC(=O)/N=C(/N)NCCC[C@@H](NC(=O)C(c1ccccc1)c1ccc(NCCCNC(=O)[C@H](N)CCCNC(=O)[C@@H](Cc2ccc(-c3ccccc3)cc2)NC(=O)CN2CCN(CC(=O)O)CCN(CC(=O)O)CCN(CC(=O)O)CC2)cc1)C(=O)NCc1ccc(O)cc1 (single isomer, unassigned) [Compound 151]
15 | < 10 nM | CCCCCCCCCCCCCCCC(=O)N[C@@H](CCC(=O)N[C@@H](CCCCNC(=O)CN1CCN(CC(=O)O)CCN(CC(=O)O)CCN(CC(=O)O)CC1)C(=O)NCCCCOc1cccc(C(C(=O)N[C@H](CCCN/C(N)=N\C(=O)NCCNC(=O)CC)C(=O)NCc2ccc(O)cc2)c2ccccc2)c1)C(=O)O (stereo partly drawn) [Compound 122, (2S)-4-{[(1S)-1-({4-[3-({[(1R)-4-{[(Z)-amino({[(2-propanamidoethyl)-carbamoyl]imino})methyl]amino}-1-{[(4-hydroxyphenyl)methyl]carbamoyl}butyl]-carbamoyl}(phenyl)methyl)phenoxy]butyl}carbamoyl)-5-{2-[4,7,10-tris(carboxymethyl)-1,4,7,10-tetraazacyclododecan-1-yl]acetamido}pentyl]carbamoyl}-2-hexadecanamidobutanoic acid]

Row | Structure (SMILES) | Ki
16 | CCC(=O)NCCNC(=O)/N=C(/N)NCCC[C@@H](NC(=O)C(c1ccccc1)c1cccc(OCCCCNC(=O)CCCCCNC(=O)CN2CCN(CC(=O)O)CCN(CC(=O)O)CCN(CC(=O)O)CC2)c1)C(=O)NCc1c(F)cc(O)cc1F (single isomer, unassigned) [Compound 161A] | < 10 nM
17 | CCC(=O)NCCNC(=O)/N=C(/N)NCCC[C@@H](NC(=O)C(c1ccccc1)c1cccc(OCCCCNC(=O)CCCCCNC(=O)CN2CCN(CC(=O)O)CCN(CC(=O)O)CCN(CC(=O)O)CC2)c1)C(=O)NCc1ccc(O)cc1 (single isomer, unassigned) [Compound 140B] | < 10 nM
18 | CCC(=O)NCCNC(=O)/N=C(/N)NCCC[C@@H](NC(=O)C(c1ccccc1)c1ccc(NCCCNC(=O)CN2CCC(NC(=O)CN3CCN(CC(=O)O)CCN(CC(=O)O)CCN(CC(=O)O)CC3)CC2)cc1)C(=O)NCc1ccc(O)cc1 (single isomer, unassigned) [Compound 133A] | < 10 nM
19 | CCC(=O)NCCNC(=O)/N=C(/N)NCCC[C@@H](NC(=O)C(c1ccccc1)c1ccc(NCCCNC(=O)CN2CCC(NC(=O)CN3CCN(CC(=O)O)CCN(CC(=O)O)CCN(CC(=O)O)CC3)CC2)cc1)C(=O)NCc1ccc(O)cc1 (single isomer, unassigned) [Compound 133B] | < 10 nM
20 | CCC(=O)NCCNC(=O)/N=C(/N)NCCC[C@@H](NC(=O)C(c1ccccc1)c1cccc(OCCCCNC(=O)[C@@H](CCCN)NC(=O)CCNC(=O)CN2CCN(CC(=O)O)CCN(CC(=O)O)CCN(CC(=O)O)CC2)c1)C(=O)NCc1ccc(O)cc1 (single isomer, unassigned) [Compound 147B] | < 10 nM
21 | CCC(=O)NCCNC(=O)/N=C(/N)NCCC[C@@H](NC(=O)C(c1ccccc1)c1ccc(NCCNC(=O)[C@H](N)CCCNC(=O)CN2CCN(CC(=O)O)CCN(CC(=O)O)CCN(CC(=O)O)CC2)cc1)C(=O)NCc1ccc(O)cc1 (single isomer, unassigned) [Compound 144B] | < 10 nM
22 | CCC(=O)NCCNC(=O)/N=C(/N)NCCC[C@@H](NC(=O)C(c1ccccc1)c1ccc(NCC(=O)N(C)CCCN(C)CCCN(C)C(=O)CN2CCN(CC(=O)O)CCN(CC(=O)O)CCN(CC(=O)O)CC2)cc1)C(=O)NCc1ccc(O)cc1 (single isomer, unassigned) [Compound 139B] | < 10 nM
23 | CCC(=O)NCCNC(=O)/N=C(/N)NCCC[C@@H](NC(=O)C(c1ccccc1)c1cccc(OCCCCNC(=O)CCNC(=O)CN2CCN(CC(=O)O)CCN(CC(=O)O)CCN(CC(=O)O)CC2)c1)C(=O)NCc1c(F)cc(O)cc1F (single isomer, unassigned) [Compound 162A] | < 10 nM

same assay, conditions: read-out: hNPY.R binding Ki* ††

Row | Structure (SMILES) | Ki
24 | CCC(=O)NCCNC(=O)/N=C(/N)NCCC[C@@H](NC(=O)C(c1ccccc1)c1ccc(OCCCNc2c(NCCNC(=O)CN3CCN(CC(=O)O)CCN(CC(=O)O)CCN(CC(=O)O)CC3)c(=O)c2=O)cc1)C(=O)NCc1ccc(O)cc1 (single isomer, unassigned) [Compound 136A] | < 10 nM
